Laboratory results as given in patent US6534523B1, “Hepatitis C inhibitor tri-peptides” (Boehringer Ingelheim (Canada) Ltd., priority 1998, dated 2003).

Assays:
[1] = biological target: T1, HCV NS3 protease type 1b / NS4A cofactor peptide (Hepatitis C virus genotype 1b, UniProt P26663); assay: Recombinant HCV NS3 protease/NS4A cofactor peptide radiometric assay (Example 37); assay type: biochemical, HCV genotype 1b
T1 construct: recombinant HCV NS3 protease (amino acid 1027 to 1206) was cloned in the pET11d bacterial expression vector; made in house; host or cells: E. coli BL21(DE3)pLysS
T1 sequence (P26663 1027-1206, other chains not shown): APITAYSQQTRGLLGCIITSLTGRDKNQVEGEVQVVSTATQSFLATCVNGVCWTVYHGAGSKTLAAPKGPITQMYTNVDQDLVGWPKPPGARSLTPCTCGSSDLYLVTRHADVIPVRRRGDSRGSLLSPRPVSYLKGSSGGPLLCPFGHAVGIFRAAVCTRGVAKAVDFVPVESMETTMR
Protocol: Recombinant HCV NS3 Protease/NS4A Cofactor Peptide Radiometric Assay
The enzyme was cloned, expressed and prepared according to the protocol described in Example 36. The enzyme was stored at −80° C., thawed on ice and diluted just prior to use in the assay buffer containing the NS4A cofactor peptide.
The substrate used for the NS3 protease/NS4A cofactor peptide radiometric assay, DDIVPC-SMSYTW, is cleaved between the cysteine and the serine residues by the enzyme. The sequence DDIVPC-SMSYTW corresponds to the NS5A/NS5B natural cleavage site in which the cysteine residue in P2 has been substituted for a proline. The peptide substrate DDIVPC-SMSYTW and the tracer biotin-DDIVPC-SMS[^125I-Y]TW are incubated with the recombinant NS3 protease and the NS4A peptide cofactor […] (molar ratio enzyme:cofactor 1:100) in the absence or presence of inhibitors. The separation of substrate from products is performed by adding avidin-coated agarose beads to the assay mixture followed by filtration. The amount of SMS[^125I-Y]TW product found in the filtrate allows for the calculation of the percentage of substrate conversion and of the percentage of inhibition.
Tris and Tris-HCl (UltraPure) were obtained from Gibco-BRL. […]
The filtrates were counted on a Packard TopCount instrument using a ^125I-liquid protocol for 1 minute.
The % inhibition was calculated with the following equation: […]

[2] = biological target: porcine pancreatic elastase (PPE) (Sus scrofa, UniProt P00772); assay: Specificity assay (Example 40), porcine pancreatic elastase; assay type: biochemical
Sequence of porcine pancreatic elastase (PPE) (P00772 27-266): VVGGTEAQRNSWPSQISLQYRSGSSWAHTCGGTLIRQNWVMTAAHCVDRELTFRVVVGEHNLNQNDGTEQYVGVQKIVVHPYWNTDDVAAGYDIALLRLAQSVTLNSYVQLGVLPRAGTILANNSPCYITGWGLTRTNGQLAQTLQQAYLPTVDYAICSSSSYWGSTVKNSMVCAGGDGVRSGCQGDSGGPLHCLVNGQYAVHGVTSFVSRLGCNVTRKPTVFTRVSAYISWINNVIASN
Protocol: The specificity of the compounds was determined against a variety of serine proteases: human leukocyte elastase, porcine pancreatic elastase and bovine pancreatic α-chymotrypsin and one cysteine protease: human liver cathepsin B. In all cases a 96-well plate format protocol using a calorimetric p-nitroaniline (pNA) substrate specific for each enzyme was used. Each assay included a 1 h enzyme-inhibitor pre-incubation at 30° C. followed by addition of substrate and hydrolysis to ≈30% conversion as measured on a UV Thermomax® microplate reader. Substrate concentrations were kept as low as possible compared to KM to reduce substrate competition. Compound concentrations varied from 300 to 0.06 μM depending on their potency.
The final conditions for each assay were as follows:
50 mM Tris-HCl pH 8, 0.5 M Na2SO4, 50 mM NaCl, 0.1 mM EDTA, 3% DMSO, 0.01% Tween-20 with;
[100 μM Succ-AAPF-pNA and 250 pM α-chymotrypsin], [133 μM Succ-AAA-pNA and 8 nM porcine elastase], [133 μM Succ-AAV-pNA and 8 nM leukocyte elastase]; or […]
After 60 min pre-incubation at 30° C., 20 μL of substrate solution (50 mM Tris-HCl, pH 8, 0.5 M Na2SO4, 50 mM NaCl, 0.1 mM EDTA, 665 μM Succ-AAA-pNA) were added to each well and the reaction was further incubated at 30° C. for 60 min after which time the absorbance was read on the UV Thermomax® plate reader. […]
The percentage of inhibition was calculated using the formula: […]

In the case of `C=C[C@@H]1C[C@]1(NC(=O)[C@@H]1C[C@@H](Oc2cc(-c3ccccc3)nc3cc(OC)ccc23)CN1C(=O)[C@@H](NC(=O)OC(C)(C)C)C(C)C)C(=O)O` [compound 601], the IC50 [1] is reported as 50 nM and the IC50 [2] is reported as > 75000 nM.
